From patent US7582655B2, “Antineoplastic compounds” (University of Saskatchewan, priority 2005, dated 2009)
Read-outs that look alike come from different tables or passages of the source.

Legend:
K 562 = test: Human tumour cell line panel, leukemic K 562; assay type: cell-based
Procedure: (§1) In addition, both 5-fluorouracil and melphalan were evaluated towards 57 cell lines. […] MG MID is the average of the potencies of the compound to approximately 50 neoplastic cell lines.

[1] = test system: human periodontal ligament fibroblasts (HPLF); test: Cytotoxicity CC50, MTT assay, normal HPLF cells
Procedure: (§2) In addition, the compounds were evaluated against human squamous cell carcinomas (HSC-2 and HSC-4) and human promyelocytic leukemia neoplasms (HL-60) and compared with normal cells, i.e. human gingival fibroblasts (HGF), human pulp cells (HPC) and human periodontal ligament fibroblasts (HPLF).
(§3) MTT stands for 3-(4,5-dimethylthiazol-2-yl)-2,5-diphenyltetrazolium bromide). The cells were incubated with varying concentrations of the compounds along with untreated cells for 24 h and the absorbance at 540 nm measured. In the case of the HL-60 assay, the trypan blue exclusion method was followed and cell viability was determined using a haemocytometer. The CC50 values were obtained from dose-response curves (Sakagami, H.; Satoh, K.; Ohata, H.; Takahashi, H.; Yoshida, H.; Iida, M.; Kuribayashi, N.; Sakagami, T.; Momose, K.; Takeda, M. Anticancer Res. 1996, 16, 2635-2644). The general methods used in culturing the cells employed in these cytotoxicity experiments have been described previously (Kawase, M.; Sakagami, H.; Motohashi, N.; Hauer, H.; Chatterjee, S. S.; Spengler, G.; Vigyikanne, A. V.; Molnár, A.; Molnár, J. In Vivo 2005, 19, 705-712; and Takeuchi, R.; Hoshijima, H.; Onuki, N.; Nagasaka, H.; Chowdhury, S. A.; Kawase, M.; Sakagami, H. Anticancer Res. 2005, 25, 4037-4042). In brief, the malignant cells were obtained from Professor Nagumo, Showa University, Japan. The HGF, HPC and HPLF cells were prepared from human periodontal tissue after obtaining informed consent according to the guidelines of Meikai University Ethics Committee, Japan (No. 0206). Since normal cells have a short lifespan, cells at the 3-7 population doubling time were used. With the exception of the HL-60 neoplasm, the cells were cultured in DMEM containing heat-inactivated FBS (10%) at 37° C. in a humidified carbon dioxide atmosphere and subcultured by trypsinization. The HL-60 cells were cultured in a similar fashion except that RPMI 1640 media was employed.

human pulp cells (HPC) = test: Cytotoxicity CC50, MTT assay, normal HPC cells
Procedure: as §2, §3

HL 60 = test: Human tumour cell line panel, leukemic HL 60; assay type: cell-based
Procedure: as §1

[2] = test system: human promyelocytic leukemia HL-60; test: Cytotoxicity CC50, trypan blue exclusion, HL-60
Procedure: as §2, §3

[3] = test system: human gingival fibroblasts (HGF); test: Cytotoxicity CC50, MTT assay, normal HGF cells
Procedure: as §2, §3

[4] = test system: human squamous cell carcinomas HSC-2; test: Cytotoxicity CC50, MTT assay, HSC-2
Procedure: as §2, §3

KM 12 = test: Human tumour cell line panel, colon cancer KM 12; assay type: cell-based
Procedure: as §1

HCT 15 = test: Human tumour cell line panel, colon cancer HCT 15; assay type: cell-based; conditions: read-out: Colon cancer cells, IC50(μM) HCT 15
Procedure: as §1

[5] = test system: HSC-2, HSC-4 and HL-60 malignant cells; test: Average CC50 for malignant cells; conditions: average CC50 for HSC-2, HSC-4 and HL-60 malignant cells
Procedure: as §2, §3

[6] = test system: human squamous cell carcinomas HSC-4; test: Cytotoxicity CC50, MTT assay, HSC-4
Procedure: as §2, §3

HCT 116 = test: Human tumour cell line panel, colon cancer HCT 116; assay type: cell-based
Procedure: as §1

SW 620 = test: Human tumour cell line panel, colon cancer SW 620; assay type: cell-based
Procedure: as §1

COLO 205 = test: Human tumour cell line panel, colon cancer COLO 205; assay type: cell-based
Procedure: as §1

human tumour cell lines = test: Panel of human tumour cell lines, all cell lines (mean graph midpoint); assay type: cell-based
Procedure: A number of compounds of the invention were further assessed against numerous human malignant cell lines. An average of 49 cell lines from nine different neoplastic diseases, namely leukemia, melanoma, non-small cell lung, colon, central nervous system, ovarian, renal, prostate, and breast cancers were employed.
as §1

RPMI 8226 = test: Human tumour cell line panel, leukemic RPMI 8226; assay type: cell-based
Procedure: as §1

SR = test: Human tumour cell line panel, leukemic SR; assay type: cell-based
Procedure: as §1

HCC 2998 = test: Human tumour cell line panel, colon cancer HCC 2998; assay type: cell-based
Procedure: as §1

[7] = 48 h; read-out: Leukemic cells, IC50(μM) K 562
[8] = read-out: CC50(μM) HPLF, normal cells, 24 h, MTT
[9] = read-out: CC50(μM) HPC, normal cells, 24 h, MTT
[10] = 48 h; read-out: Leukemic cells, IC50(μM) HL 60
[11] = read-out: CC50(μM) HL-60, 24 h, trypan blue exclusion, average of two determinations
[12] = read-out: CC50(μM) HGF, normal cells, 24 h, MTT
[13] = read-out: CC50(μM) HSC-2, 24 h, MTT, average of two determinations
[14] = read-out: Colon cancer cells, IC50(μM) KM 12
[15] = read-out: CC50(μM) HSC-4, 24 h, MTT, average of two determinations
[16] = 48 h; read-out: Colon cancer cells, IC50(μM) HCT 116
[17] = 48 h; read-out: Colon cancer cells, IC50(μM) SW 620
[18] = 48 h; read-out: Colon cancer cells, IC50(μM) COLO 205
[19] = mean graph midpoint, average of 49 (38-59) human tumour cell lines, 48 h incubation, read-out: All cell lines IC50
[20] = 48 h; read-out: Leukemic cells, IC50(μM) RPMI 8226
[21] = 48 h; read-out: Colon cancer cells, IC50(μM) KM 12

Molecule	IC50 (K 562; [7])	CC50 [1, 8]	CC50 (human pulp cells (HPC); [9])	IC50 (HL 60; [10])	CC50 [2, 11]	CC50 [3, 12]	CC50 [4, 13]	IC50 (KM 12; [14])	IC50 (HCT 15; 48 h)	CC50(μM) ave [5]	CC50 [6, 15]	IC50 (HCT 116; [16])	IC50 (SW 620; [17])	IC50 (COLO 205; [18])	IC50 (human tumour cell lines; [19])	IC50 (RPMI 8226; [20])	CC50 [1]	CC50 (human pulp cells (HPC))	CC50 [2]	CC50 [3]	further results
1-[4-{2-(4-Morpholinyl)ethoxy}phenylcarbonyl]-3,5-bis(phenylmethylene)-4-piperidone hydrochloride hemihydrate [Compound 6a]	0.158 µM	30 µM	95 µM	0.562 µM	1.2 µM	83 µM	2.4 µM	0.129 µM	1.45 µM	2.0 µM	2.4 µM	0.339 µM	0.191 µM	22.9 µM	> 2.63 µM	0.123 µM					
3,5-bis(4-Methyl phenylmethylene)-1-[4-{2-(4-morpholinyl)ethoxy}phenylcarbonyl]-4-piperidone hydrochloride hemihydrate [Compound 6d]	0.275 µM	12 µM	49 µM	1.1 µM	1.2 µM	10 µM	1.6 µM	1.12 µM	0.832 µM	1.6 µM	2 µM	2.45 µM	1.02 µM	1.15 µM	< 0.708 µM	0.115 µM					IC50 (SR; 48 h; read-out: Leukemic cells, IC50(μM) SR): 0.245 µM
O=c1[nH]cc(F)c(=O)[nH]1 [5-Fluorouracil, 5-fluorouracil, reference compound]															> 29.5 µM						IC50 (K 562; Homo sapiens, K562, 48 h; read-out: Leukemic cells, IC50(μM) K 562): 126 µM; IC50 (HL 60; Homo sapiens, HL-60, 48 h; read-out: Leukemic cells, IC50(μM) HL 60): 85.1 µM; IC50 (KM 12; Homo sapiens, KM12, 48 h; read-out: Colon cancer cells, IC50(μM) KM 12): 7.94 µM; IC50 (HCT 15; Homo sapiens, HCT-15, 48 h): 6.61 µM; IC50 (HCC 2998; Homo sapiens, HCC 2998, 48 h; read-out: Colon cancer cells, IC50(μM) HCC 2998): 5.75 µM; IC50 (SR; Homo sapiens, SR, 48 h; read-out: Leukemic cells, IC50(μM) SR): 60.3 µM; IC50 (HCT 116; Homo sapiens, HCT-116, 48 h; read-out: Colon cancer cells, IC50(μM) HCT 116): 2.04 µM; IC50 (SW 620; Homo sapiens, SW-620, 48 h; read-out: Colon cancer cells, IC50(μM) SW 620): 18.6 µM; IC50 (COLO 205; Homo sapiens, COLO 205, 48 h; read-out: Colon cancer cells, IC50(μM) COLO 205): 3.39 µM; S.I. (selectivity index) (human tumour cell lines; ratio of the IC50 figures for the least and most sensitive cell lines): >4365; IC50 (RPMI 8226; Homo sapiens, RPMI-8226, 48 h; read-out: Leukemic cells, IC50(μM) RPMI 8226): 3.55 µM
Cc1ccc(C=C2CN(C(=O)c3ccc(OCCN4CCCCC4)cc3)CC(=Cc3ccc(C)cc3)C2=O)cc1.Cc1ccc(C=C2CN(C(=O)c3ccc(OCCN4CCCCC4)cc3)CC(=Cc3ccc(C)cc3)C2=O)cc1.Cl.Cl.O [Compound 5d, 3,5-bis(4-Methylphenylmethylene)-1-[4-{1-piperidinyl)ethoxy}phenylcarbonyl]-4-piperidone hydrochloride hemihydrate]	0.589 µM			0.933 µM					1.07 µM			1.58 µM	0.339 µM	6.92 µM	1.38 µM	0.123 µM	5.5 µM	15 µM	2.3 µM	6 µM	CC50 [4]: 2.9 µM; IC50 (KM 12; [21]): 0.148 µM; CC50 [6]: 4.1 µM
Cl.O=C1C(=Cc2ccc(Cl)cc2)CN(C(=O)c2ccc(OCCN3CCOCC3)cc2)CC1=Cc1ccc(Cl)cc1 [Compound 6b, 3,5-bis(4-Chlorophenylmethylene)-1-[4-{2-(4-morpholinyl)ethoxy}phenylcarbonyl-4-piperidone hydrochloride]	6.76 µM			5.5 µM					2.19 µM			7.25 µM	1.45 µM		< 0.562 µM	0.132 µM	360 µM	> 400 µM	36 µM	400 µM	CC50 [4]: 71 µM; IC50 (KM 12; [21]): 2.29 µM; IC50 (HCC 2998; 48 h; read-out: Colon cancer cells, IC50(μM) HCC 2998): < 0.005 µM; CC50 [6]: 18 µM
N[C@@H](Cc1ccc(N(CCCl)CCCl)cc1)C(=O)O [Melphalan, reference compound]		> 200 µM	> 200 µM			> 200 µM				40.7 µM											IC50 (K 562; Homo sapiens, K562, 48 h, read-out: Leukemic cells, IC50(μM) K 562): 43.7 µM; IC50 (HL 60; Homo sapiens, HL-60, 48 h, read-out: Leukemic cells, IC50(μM) HL 60): 2.04 µM; CC50 ([2]; Homo sapiens, HL-60, 24 h, read-out: CC50(μM) HL-60): 6 µM; CC50 ([4]; Homo sapiens, HSC-2, 24 h, read-out: CC50(μM) HSC-2): 35 µM; IC50 (KM 12; Homo sapiens, KM12, 48 h, read-out: Colon cancer cells, IC50(μM) KM 12): 43.7 µM; IC50 (HCC 2998; Homo sapiens, HCC 2998, 48 h, read-out: Colon cancer cells, IC50(μM) HCC 2998): 41.7 µM; CC50 ([6]; Homo sapiens, HSC-4, 24 h, read-out: CC50(μM) HSC-4): 81 µM; IC50 (SR; Homo sapiens, SR, 48 h, read-out: Leukemic cells, IC50(μM) SR): 1.86 µM; IC50 (HCT 116; Homo sapiens, HCT-116, 48 h, read-out: Colon cancer cells, IC50(μM) HCT 116): 30.2 µM; IC50 (SW 620; Homo sapiens, SW-620, 48 h, read-out: Colon cancer cells, IC50(μM) SW 620): 38.9 µM; IC50 (COLO 205; Homo sapiens, COLO 205, 48 h, read-out: Colon cancer cells, IC50(μM) COLO 205): 66.1 µM; IC50 (human tumour cell lines; Homo sapiens, 48 h, read-out: All cell lines IC50(μM)): 26.9 µM; IC50 (RPMI 8226; Homo sapiens, RPMI-8226, 48 h, read-out: Leukemic cells, IC50(μM) RPMI 8226): 66.1 µM
